Data from PubChem BioAssay (NCI).
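Test compounds were applied to cells in 96-well plates for 48 hours at 5 doses. GI50 = concentration required for 50% inhibition of growth. At the TGI there is no net growth.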

Legend:
Assay in all cases: NCI-60 cell line screen, 48 h
[1] = system: SNB-19 CNS
[2] = system: COLO 205 colon
[3] = system: OVCAR-8 ovarian
[4] = system: RXF 393 renal
[5] = system: HOP-92 NSCLC
[6] = system: CAKI-1 renal
[7] = system: EKVX NSCLC
[8] = system: MDA-MB-231 breast
[9] = system: SNB-75 CNS
[10] = system: SK-MEL-28 melanoma

Row | Compound | GI50 [1] | TGI [1] | GI50 [2] | TGI [2] | GI50 [3] | TGI [3] | GI50 [4] | TGI [4] | GI50 [5] | TGI [5] | GI50 [6] | TGI [6] | GI50 [7] | TGI [7] | GI50 [8] | TGI [8] | GI50 [9] | TGI [9] | GI50 [10] | TGI [10]
1 | Fc1ccc(-c2c(-c3ccncc3)nc3n2CCS3)cc1 | > 25 µM | > 25 µM | > 25 µM | > 25 µM | > 25 µM | > 25 µM | > 12.9 µM | > 25 µM | > 16.9 µM | > 25 µM | > 25 µM | > 25 µM | > 25 µM | > 25 µM | > 25 µM | > 25 µM | > 25 µM | > 25 µM | > 25 µM | > 25 µM
2 | Oc1ccc(C=Nc2ccccc2O)cc1 | – | > 100 µM | – | 91.7 µM | – | > 100 µM | – | > 100 µM | – | > 100 µM | – | > 100 µM | – | > 100 µM | – | > 100 µM | – | > 100 µM | – | > 100 µM
3 | O=C1N[C@@H]2[C@@H](O)[C@@H](O)[C@H](O)C[C@H]2c2cc3c(c(O)c21)OCCO3 | 0.179 µM | 1.02 µM | 0.162 µM | 0.405 µM | 0.287 µM | 3.21 µM | 0.264 µM | 1.11 µM | 0.116 µM | 0.892 µM | 0.989 µM | 6.14 µM | 0.323 µM | 1.85 µM | 0.236 µM | 1.07 µM | 0.466 µM | 2.62 µM | 0.274 µM | 1.23 µM
4 | C=C(c1ccc(OC)c(/C=C/C(=O)c2ccc3c(c2)OCO3)c1)c1cc(OC)c(OC)c(OC)c1 | 2.79 µM | > 100 µM | 4.15 µM | > 100 µM | 2.89 µM | 18.2 µM | 1.98 µM | 5.17 µM | 1.78 µM | > 100 µM | 3.02 µM | > 100 µM | 4.67 µM | > 100 µM | 5.97 µM | > 100 µM | 1.64 µM | 7.08 µM | – | –
5 | Nc1nc(/C=C\c2ccc([N+](=O)[O-])s2)nc(N2CCN(c3ccccc3)CC2)n1 | 30.5 µM | 77 µM | 15.4 µM | 32.1 µM | 22.2 µM | 52.7 µM | 18.6 µM | 37.2 µM | 22.8 µM | 57.1 µM | 18.1 µM | 39.1 µM | 32.2 µM | > 100 µM | 13 µM | 29.6 µM | 33.1 µM | 60.5 µM | 24.9 µM | 47.1 µM
6 | CC(=O)O[C@@H]1C2CCC3C(CC[C@@]4(C)C3CC[C@@H]4C(C)N(C)C)[C@@]2(C)CC[C@@H]1NC(=O)C=C(C)C (stereo partly specified) | 6.89 µM | 18.7 µM | 1.62 µM | 3.1 µM | 4.64 µM | > 35.7 µM | 1.46 µM | 3.21 µM | 1.66 µM | 10.7 µM | 3.4 µM | 11.3 µM | 2.8 µM | 16.6 µM | 2.24 µM | 5.19 µM | 2.35 µM | 9.31 µM | 1.73 µM | 3.27 µM
7 | Cc1nc([N+](=O)[O-])cn1-c1nc2ccccn2c1[N+](=O)[O-] | – | > 100 µM | – | > 100 µM | – | > 100 µM | – | 44.5 µM | – | > 100 µM | – | > 100 µM | – | > 100 µM | – | > 100 µM | – | 63.7 µM | – | > 100 µM
8 | CN[C@H]1CN(c2ccc3c(=O)c(C(=O)O)cn(-c4nccs4)c3n2)C[C@@H]1OC | 0.376 µM | 14.2 µM | 1.21 µM | 2.66 µM | 0.457 µM | 3.73 µM | 1.16 µM | 3.63 µM | 0.176 µM | 0.938 µM | 0.271 µM | 2.24 µM | 1.97 µM | 7.17 µM | 1.52 µM | 6.92 µM | 0.637 µM | 2.55 µM | 1.31 µM | 3.01 µM
9 | OC(CNc1ccnc2cc(Cl)ccc12)CNc1ccnc2cc(Cl)ccc12 | – | – | – | – | – | – | 1.7 µM | 3.19 µM | 4.22 µM | 19.1 µM | 31.1 µM | > 100 µM | 2.22 µM | 6.04 µM | 1.73 µM | 3.44 µM | 1.5 µM | 3.03 µM | – | –
10 | O=c1oc2ccc(I)cc2c(=O)n1-c1ccc(Br)cc1F | 0.434 µM | > 63.5 µM | 3.19 µM | 11.6 µM | 0.821 µM | 11.8 µM | 1.02 µM | 4.39 µM | 0.207 µM | 0.634 µM | 0.375 µM | 3.23 µM | 1.34 µM | 7.11 µM | 0.457 µM | 3.79 µM | 0.374 µM | 2.48 µM | 0.404 µM | 2.03 µM
11 | CNC(=O)c1ccc(N2C(=S)N(c3cnc(C#N)c(C(F)(F)F)c3)C(=O)C23CCC3)cc1F | > 100 µM | > 100 µM | > 100 µM | > 100 µM | > 100 µM | > 100 µM | > 44.8 µM | > 100 µM | > 86.7 µM | > 100 µM | > 100 µM | > 100 µM | > 100 µM | > 100 µM | > 100 µM | > 100 µM | > 100 µM | > 100 µM | > 100 µM | > 100 µM
12 | COc1ccc(C2(Cl)c3ccccc3N(c3ccccc3)c3ccccc32)cc1 | 0.637 µM | 2.43 µM | 0.421 µM | 2.45 µM | 0.203 µM | 2.7 µM | 0.718 µM | 2.56 µM | 1.88 µM | 7.13 µM | 1.68 µM | 12.5 µM | 0.25 µM | 2.9 µM | 0.759 µM | 2.54 µM | 0.359 µM | 2.05 µM | 0.222 µM | 1.49 µM
13 | C[C@@H](Oc1cc(-n2cnc3ccc(OC4CCN(C)CC4)cc32)sc1C(N)=O)c1ccccc1Cl | 0.07 µM | 13.2 µM | 0.00926 µM | 0.106 µM | 0.0197 µM | 3.36 µM | 0.0112 µM | 3.53 µM | 0.0387 µM | 2.78 µM | 1.08 µM | 6.08 µM | – | – | 0.0225 µM | 0.53 µM | 0.0614 µM | 2.89 µM | – | –
14 | O=C(O)CCNCC(=O)O | – | > 100 µM | – | > 100 µM | – | > 100 µM | – | > 100 µM | – | > 100 µM | – | > 100 µM | – | > 100 µM | – | > 100 µM | – | > 100 µM | – | > 100 µM
